Results reported in patent publication US20110009454A1, “COMPOSITION FOR AGRICULTURAL USE FOR CONTROLLING OR PREVENTING PLANT DISEASES CAUSED BY PLANT PATHOGENS” (SUMITOMO CHEMICAL COMPANY, LIMITED, priority 2008, published 2011).

Test system: Grape Downy Mildew (Plasmopara viticola)
Test: Test Example 6: treating grape downy mildew, foliage application
Details: 500 ppm, foliage application 1 day after inoculation (curative), grape (Berry-A or Chardonnay seedling), 5 days green house then 1 day high humidity
Protocol: Such control effect was evaluated by visually observing the area of blotch on a test plant during a test and then comparing the area of the blotch of a plant treated with the controlling reagent of the present invention with the area of the blotch of an untreated plant.
A plastic pot was filled with sandy soil, and grape (variety: Berry-A or Chardonnay seedling) was then seeded. The grape plants were allowed to grow in a green house for 40 days. A water suspension of zoosporangium of grape Plasmopara viticola was inoculated to the aforementioned pot by spaying it. Thereafter, the grape plants were left at 23° C. at a high humidity for 1 day, and they were then air-dried, so as to obtain grape downy mildew-infected nursery plants. […] The prepared flowable formulations were set to a predetermined concentration (500 ppm) by diluting them with water, and they were then subjected to foliage application such that they could be sufficiently attached to the leaves of the aforementioned nursery grape plants. After completion of the foliage application, the plants were subjected to air-drying, and they were then left at 23° C. in a green house for 5 days. Thereafter, the plants were further left at 23° C. at a high humidity for 1 day. Thereafter, the affected areas thereof were examined.

SMILES: Cc1ccc(Oc2ccc(CNC(=O)c3cccnc3N)s2)cc1 [compound 236]
- affected areas of treated plants relative to affected areas of untreated plants: ≤ 30%
